Laboratory results from patent publication US9695155B2, “Herbicidal substituted pyrimidinyloxy benzene compounds” (E. I. DU PONT DE NEMOURS AND COMPANY, priority 2013, dated 2017).

Columns and labels:
Assay in all cases: Test E postemergence
wild poinsettia = type: in vivo, Euphorbia heterophylla
Text: (§1) Seeds of plant species selected from corn (Zea mays), soybean (Glycine max), velvetleaf (Abutilon theophrasti), lambsquarters (Chenopodium album), wild poinsettia (Euphorbia heterophylla), palmer pigweed (Amaranthus palmeri), waterhemp (common waterhemp, Amaranthus rudis), surinam grass (Brachiaria decumbens), large (Lg) crabgrass (Digitaria sanguinalis), Brazilian crabgrass (Digitaria horizontalis), fall panicum (Panicum dichotomiflorum), giant foxtail (Setaria faberii), green foxtail (Setaria viridis), goosegrass (Eleusine indica), johnsongrass (Sorghum halepense), ragweed (common ragweed, Ambrosia elatior), barnyardgrass (Echinochloa crus-galli), sandbur (southern sandbur, Cenchrus echinatus), arrowleaf sida (Sida rhombifolia), Italian ryegrass (Lolium multiflorum), dayflower (Virginia (VA) dayflower, Commelina virginica), field bindweed (Convolvulus arvensis), morningglory (Ipomoea coccinea), nightshade (eastern black nightshade, Solanum ptycanthum), kochia (Kochia scoparia), yellow nutsedge (Cyperus esculentus), cocklebur (common cocklebur, Xanthium strumarium), smartweed (ladysthumb smartweed, and hairy beggarticks (Bidens pilosa), were planted into a silt loam soil and treated preemergence with test chemicals formulated in a non-phytotoxic solvent mixture which included a surfactant.
(§2) At the same time, plants from these crop and weed species and also horseweed (Canada horseweed, Conyza canadensis), waterhemp_RES1, (ALS & Triazine resistant common waterhemp, Amaranthus rudis), and waterhemp_RES2, (ALS & HPPD resistant common waterhemp, Amaranthus rudis) were planted in pots containing Redi-Earth® planting medium (Scotts Company, 14111 Scottslawn Road, Marysville, Ohio 43041) comprising spaghnum peat moss, vermiculite, wetting agent and starter nutrients were treated with postemergence applications of test chemicals formulated in the same manner. Plants ranged in height from 2 to 18 cm for postemergence treatments (1- to 4-leaf stage). Treated plants and controls were maintained in a greenhouse for 14 to 21 days, after which time all species were compared to controls and visually evaluated. Plant response ratings, summarized in Table E, are based on a scale of 0 to 100 where 0 is no effect and 100 is complete control. A dash (-) response means no test result.

barnyardgrass = type: in vivo, Echinochloa crus-galli
Text: as §1, §2

Italian ryegrass = type: in vivo, Lolium multiflorum
Text: as §1, §2

field bindweed = type: in vivo, Convolvulus arvensis
Text: as §1, §2

[1] = Postemergence, 31 g ai/ha, scale 0 to 100
[2] = Postemergence, 62 g ai/ha, scale 0 to 100
[3] = Postemergence, 125 g ai/ha, scale 0 to 100
[4] = Postemergence, 250 g ai/ha, scale 0 to 100
[5] = postemergence, 16 g ai/ha, scale 0 to 100, 0 no effect, 100 complete control
[6] = postemergence, 8 g ai/ha, scale 0 to 100, 0 no effect, 100 complete control

| Compound | Plant response rating, Poinsettia, Wild (wild poinsettia; [1]) | Plant response rating, Poinsettia, Wild (wild poinsettia; [2]) | Plant response rating, Poinsettia, Wild (wild poinsettia; [3]) | Plant response rating, Poinsettia, Wild (wild poinsettia; [5]) | Plant response rating, Barnyardgrass (barnyardgrass; [1]) | Plant response rating, Barnyardgrass (barnyardgrass; [2]) | Plant response rating, Barnyardgrass (barnyardgrass; [3]) | Plant response rating, Barnyardgrass (barnyardgrass; [5]) | Plant response rating, Ryegrass, Italian (Italian ryegrass; [1]) | Plant response rating, Ryegrass, Italian (Italian ryegrass; [2]) | Plant response rating, Ryegrass, Italian (Italian ryegrass; [3]) | Plant response rating, Ryegrass, Italian (Italian ryegrass; [5]) | Plant response rating, Field Bindweed (field bindweed; [1]) | Plant response rating, Field Bindweed (field bindweed; [2]) | Plant response rating, Field Bindweed (field bindweed; [3]) | Plant response rating, Field Bindweed (field bindweed; [5]) | other results |
| --- | --- | --- | --- | --- | --- | --- | --- | --- | --- | --- | --- | --- | --- | --- | --- | --- | --- |
| Fc1cnc(Oc2ccccc2-n2cc(Br)cn2)nc1 [Compound 10, 2-[2-(4-bromo-1H-pyrazol-1-yl)phenoxy]-5-fluoropyrimidine] |  |  |  |  |  |  |  |  |  |  |  |  |  |  |  |  | pest or weed control at 31 g/ha (wild poinsettia; Euphorbia heterophylla, post-emergence, Postemergence, 31 g ai/ha, scale 0 to 100, read-out: Plant response rating, Poinsettia, Wild): 20%; pest or weed control at 62 g/ha (wild poinsettia; Euphorbia heterophylla, post-emergence, Postemergence, 62 g ai/ha, scale 0 to 100, read-out: Plant response rating, Poinsettia, Wild): 30%; pest or weed control at 125 g/ha (wild poinsettia; Euphorbia heterophylla, post-emergence, Postemergence, 125 g ai/ha, scale 0 to 100, read-out: Plant response rating, Poinsettia, Wild): 30%; pest or weed control at 250 g/ha (wild poinsettia; Euphorbia heterophylla, post-emergence, Postemergence, 250 g ai/ha, scale 0 to 100, read-out: Plant response rating, Poinsettia, Wild): 60%; pest or weed control at 16 g/ha (wild poinsettia; Euphorbia heterophylla, post-emergence, postemergence, 16 g ai/ha, scale 0 to 100, 0 no effect, 100 complete control, read-out: Plant response rating, Poinsettia, Wild): 5%; pest or weed control at 31 g/ha (barnyardgrass; Echinochloa crus-galli, post-emergence, Postemergence, 31 g ai/ha, scale 0 to 100, read-out: Plant response rating, Barnyardgrass): 0%; pest or weed control at 62 g/ha (barnyardgrass; Echinochloa crus-galli, post-emergence, Postemergence, 62 g ai/ha, scale 0 to 100, read-out: Plant response rating, Barnyardgrass): 0%; pest or weed control at 125 g/ha (barnyardgrass; Echinochloa crus-galli, post-emergence, Postemergence, 125 g ai/ha, scale 0 to 100, read-out: Plant response rating, Barnyardgrass): 0%; pest or weed control at 250 g/ha (barnyardgrass; Echinochloa crus-galli, post-emergence, Postemergence, 250 g ai/ha, scale 0 to 100, read-out: Plant response rating, Barnyardgrass): 0%; pest or weed control at 16 g/ha (barnyardgrass; Echinochloa crus-galli, post-emergence, postemergence, 16 g ai/ha, scale 0 to 100, 0 no effect, 100 complete control, read-out: Plant response rating, Barnyardgrass): 0%; pest or weed control at 31 g/ha (Italian ryegrass; Lolium multiflorum, post-emergence, Postemergence, 31 g ai/ha, scale 0 to 100, read-out: Plant response rating, Ryegrass, Italian): 0%; pest or weed control at 62 g/ha (Italian ryegrass; Lolium multiflorum, post-emergence, Postemergence, 62 g ai/ha, scale 0 to 100, read-out: Plant response rating, Ryegrass, Italian): 0%; pest or weed control at 125 g/ha (Italian ryegrass; Lolium multiflorum, post-emergence, Postemergence, 125 g ai/ha, scale 0 to 100, read-out: Plant response rating, Ryegrass, Italian): 0%; pest or weed control at 250 g/ha (Italian ryegrass; Lolium multiflorum, post-emergence, Postemergence, 250 g ai/ha, scale 0 to 100, read-out: Plant response rating, Ryegrass, Italian): 0%; pest or weed control at 16 g/ha (Italian ryegrass; Lolium multiflorum, post-emergence, postemergence, 16 g ai/ha, scale 0 to 100, 0 no effect, 100 complete control, read-out: Plant response rating, Ryegrass, Italian): 0%; pest or weed control at 31 g/ha (field bindweed; Convolvulus arvensis, post-emergence, Postemergence, 31 g ai/ha, scale 0 to 100, read-out: Plant response rating, Field Bindweed): 30%; pest or weed control at 62 g/ha (field bindweed; Convolvulus arvensis, post-emergence, Postemergence, 62 g ai/ha, scale 0 to 100, read-out: Plant response rating, Field Bindweed): 30%; pest or weed control at 125 g/ha (field bindweed; Convolvulus arvensis, post-emergence, Postemergence, 125 g ai/ha, scale 0 to 100, read-out: Plant response rating, Field Bindweed): 40%; pest or weed control at 250 g/ha (field bindweed; Convolvulus arvensis, post-emergence, Postemergence, 250 g ai/ha, scale 0 to 100, read-out: Plant response rating, Field Bindweed): 50%; pest or weed control at 16 g/ha (field bindweed; Convolvulus arvensis, post-emergence, postemergence, 16 g ai/ha, scale 0 to 100, 0 no effect, 100 complete control, read-out: Plant response rating, Field Bindweed): 15% |
| FC(F)(F)c1cnn(-c2ccccc2Oc2ncc(Cl)cn2)c1 [Compound 16] | 60 | 60 | 70 | 50 | 0 | 0 | 10 | 0 | 0 | 0 | 0 | 0 | 30 | 40 | 50 | 10 | Plant response rating, Poinsettia, Wild (wild poinsettia; [4]): 80; Plant response rating, Barnyardgrass (barnyardgrass; [4]): 15; Plant response rating, Ryegrass, Italian (Italian ryegrass; [4]): 0; Plant response rating, Field Bindweed (field bindweed; [4]): 60 |
| Clc1cnc(Oc2cccc(Br)c2-n2cc(Br)cn2)nc1 [Compound 65] | 20 | 20 | 40 | 20 | 0 | 0 | 0 | 0 | 0 | 0 | 0 | 0 | 20 | 40 | 40 | 10 | Plant response rating, Poinsettia, Wild (wild poinsettia; [6]): 15; Plant response rating, Barnyardgrass (barnyardgrass; [6]): 0; Plant response rating, Ryegrass, Italian (Italian ryegrass; [6]): 0; Plant response rating, Field Bindweed (field bindweed; [6]): 0 |
